Experimental data from patent US20260274814A1, “THIENYL COMPOUNDS FOR THE TREATMENT OF A CENTRAL NERVOUS SYSTEM DISEASE OR DISORDER” (Coreterra Therapeutics, Inc., priority 2023, published 2026).
Structures can show the parent of a compound that is named as a salt.

Test system: mice
Assay: Neuropharmacological Assay (SmartCube): automated behavioral signature of compound-treated mice compared with a database of reference drug classes
Type: in vivo
Conditions: for minimal effective dose: Mus musculus, ip, read-out: MED (minimal effective dose); for minimal effective dose / MED (minimal effective dose): dose having 45% or more total activity in SmartCube, i.p., if only one dose was tested, that dose is shown; for AD / AG / AN / AP / AX / CE / HL / MS / PS / SH / UK: probability that activity matches this class of agents, 3.0 mg/kg i.p., 15 min before test
Excerpt: Neurosci. 2011 Sep. 9; 5: 103 (doi: 10.3389/fnins.2011.00103) (“Roberds”). As reported in Roberds, because psychiatric diseases generally result from disorders of cell-cell communication or circuitry, intact systems are useful in detecting improvement in disease-relevant endpoints. These endpoints are typically behavioral in nature, often requiring human observation and interpretation. To facilitate testing of multiple compounds for behavioral effects relevant to psychiatric disease, PsychoGenics, Inc. (Tarrytown, NY, “PGI”) developed SmartCube™ an automated system in which behaviors of compound-treated mice are captured by digital video and analyzed with computer algorithms. (D. Brunner et al. Drug Discov. Today 2002, 7:S107-S112). PGI Analytical Systems uses data from SmartCube™ to compare the behavioral signature of a test compound to a database of behavioral signatures obtained using a large set of diverse reference compounds. (The composition of the database as well as validation of the method is further described in Roberds). In this way, the neuropharmacological effects of a test compound can be predicted by similarity to major classes of compounds, such as antipsychotics, anxiolytics and antidepressants.
The SmartCube™ system produces an activity signature indicating the probability that the activity of the test compound at the administered dose matches a given class of neuropharmacological agents. (See, e.g., Roberds, FIGS. 2 and 3). The test compound is simultaneously compared against multiple classes of agents; thus, a separate probability is generated for each behavioral effect measured (e.g., anxiolytic activity, analgesic activity, etc.). In table 2 below, these probabilities are reported for each behavioral effect measured as described in Table 1 below.
Provided compounds were dissolved in a mixture of Pharmasolve™ (N-methyl-2-pyrrolidone), polyethylene glycol and propylene glycol, and were injected i.p. 15 min. before the behavioral test. For each compound, injections were administered at 3 different doses. For each behavioral effect measured, results for the 3.0 mg/kg dose are presented. The potency of many of the compounds in the table was also determined in the SmartCube™ system. Test compounds were routinely examined at dose levels of 0.3, 1, 3 and 10 mg per kg (mpk), although the dose range was increased or decreased, if necessary, to obtain a full dose response curve. A compound's minimal effective dose (MED) is a measure of the compound's potency. The MED was defined as the dose (in mpk) having 45% or more total activity in SmartCube. If only one dose was tested, that dose is shown in the MED column of Table 2 even though the dose is not known to be the MED.

| Compound | minimal effective dose | AD | AG | AN | AP | AX | CE | HL | MS | PS | SH | UK | MED (minimal effective dose) | AD (hydrochloride, 3 mg/kg) | further results |
| --- | --- | --- | --- | --- | --- | --- | --- | --- | --- | --- | --- | --- | --- | --- | --- |
| Cc1cc2c(s1)CC(N(C)C)CC2.Cl (single isomer, unassigned) [Compound 34, N,N, 2-trimethyl-4,5,6,7-tetrahydrobenzothiophen-6-amine hydrochloride] | 10 mg/kg | ND (^ <4%) | ND (^ <4%) | ND (^ <4%) | ND (^ <4%) | ND (^ <4%) | ND (^ <4%) | ND (^ <4%) | ND (^ <4%) | ND (^ <4%) | ND (^ <4%) | ++ (≥24%) |  |  |  |
| Cc1cc2c(s1)CC(N(C)C)CC2.Cl (single isomer, unassigned) [Compound 35, N,N, 2-trimethyl-4,5,6,7-tetrahydrobenzothiophen-6-amine hydrochloride] |  | ND (^ <4%) |  |  |  |  |  |  |  |  |  | ++ (≥24%) | 10 mpk |  |  |
| CNC1CCc2cc(C#N)sc2C1 (single isomer, unassigned) [Compound 36, 6-(methylamino)-4,5,6,7-tetrahydrobenzothiophene-2-carbonitrile hydrochloride] | 3 mg/kg | ND (^ <4%) | ND (^ <4%) | ND (^ <4%) |  | ND (^ <4%) | ND (^ <4%) | ND (^ <4%) | ND (^ <4%) | ND (^ <4%) | ND (^ <4%) |  |  |  | AP (hydrochloride, 3 mg/kg): +++ (≥49%); UK (hydrochloride, 3 mg/kg): ++ (≥24%) |
| CNC1CCc2cc(C#N)sc2C1 (single isomer, unassigned) [Compound 37, 6-(methylamino)-4,5,6,7-tetrahydrobenzothiophene-2-carbonitrile hydrochloride] |  | ND (^ <4%) | ND (^ <4%) | ND (^ <4%) |  | ND (^ <4%) | ND (^ <4%) | ND (^ <4%) | ND (^ <4%) | ND (^ <4%) | ND (^ <4%) |  | 3.0 mpk |  | AP (hydrochloride, 3 mg/kg): ND (^ <4%); UK (hydrochloride, 3 mg/kg): +++ (≥49%) |
| CNC1CCc2cc(C(F)(F)F)sc2C1 (single isomer, unassigned) [Compound 38, N-methyl-2-(trifluoromethyl)-4,5,6,7-tetrahydrobenzothiophen-6-amine] | 3 mg/kg |  | ND (^ <4%) | ND (^ <4%) |  | ND (^ <4%) | ND (^ <4%) | ND (^ <4%) | ND (^ <4%) | ND (^ <4%) | ND (^ <4%) |  |  |  | AD (3 mg/kg): ND (^ <4%); AP (3 mg/kg): ND (^ <4%); UK (3 mg/kg): ++ (≥24%) |
| CNC1CCc2cc(C(F)(F)F)sc2C1 (single isomer, unassigned) [Compound 39, N-methyl-2-(trifluoromethyl)-4,5,6,7-tetrahydrobenzothiophen-6-amine] |  |  | ND (^ <4%) | ND (^ <4%) |  | ND (^ <4%) | ND (^ <4%) | ND (^ <4%) | ND (^ <4%) | ND (^ <4%) | ND (^ <4%) |  | 3.0 mpk |  | AD (3 mg/kg): +++ (≥49%); AP (3 mg/kg): ++ (≥24%); UK (3 mg/kg): ND (^ <4%) |
| CNC1CCc2csc(C)c2C1.Cl (single isomer, unassigned) [Compound 40, N, 3-dimethyl-4,5,6,7-tetrahydro-2-benzothiophen-5-amine hydrochloride] | 1 mg/kg |  | ND (^ <4%) | ND (^ <4%) | ++ (≥24%) |  | ND (^ <4%) | ND (^ <4%) | ND (^ <4%) | ND (^ <4%) | ND (^ <4%) | ND (^ <4%) |  | ND (^ <4%) | AX (hydrochloride, 3 mg/kg): +++ (≥49%) |
| CNC1CCc2csc(C)c2C1.Cl (single isomer, unassigned) [Compound 41, N, 3-dimethyl-4,5,6,7-tetrahydro-2-benzothiophen-5-amine hydrochloride] |  |  | ND (^ <4%) | ND (^ <4%) | ++ (≥24%) |  | ND (^ <4%) | ND (^ <4%) | ND (^ <4%) | ND (^ <4%) | ND (^ <4%) | ND (^ <4%) | 1.0 mpk | +++ (≥49%) | AX (hydrochloride, 3 mg/kg): ND (^ <4%) |
| CNC1CCc2c(sc(C)c2C)C1 (single isomer, unassigned) [Compound 42, N, 2,3-trimethyl-4,5,6,7-tetrahydrobenzothiophen-6-amine hydrochloride] | 3 mg/kg | ++++ (≥74%) | ND (^ <4%) | ND (^ <4%) | ND (^ <4%) | ND (^ <4%) | ND (^ <4%) |  | ND (^ <4%) | ND (^ <4%) | ND (^ <4%) | ND (^ <4%) |  |  | HL (hydrochloride, 3 mg/kg): ND (^ <4%) |
| CNC1CCc2c(sc(C)c2C)C1 (single isomer, unassigned) [Compound 43, N, 2,3-trimethyl-4,5,6,7-tetrahydrobenzothiophen-6-amine hydrochloride] |  | ++++ (≥74%) | ND (^ <4%) | ND (^ <4%) | ND (^ <4%) | ND (^ <4%) | ND (^ <4%) |  | ND (^ <4%) | ND (^ <4%) | ND (^ <4%) | ND (^ <4%) | 3.0 mpk |  | HL (hydrochloride, 3 mg/kg): + (≥4%) |
| CNC1CCc2c(C)csc2C1 (single isomer, unassigned) [Compound 44, N, 3-dimethyl-4,5,6,7-tetrahydrobenzothiophen-6-amine hydrochloride] |  |  | ND (^ <4%) | ND (^ <4%) |  | ND (^ <4%) | ND (^ <4%) | ND (^ <4%) | ND (^ <4%) | ND (^ <4%) | ND (^ <4%) | ND (^ <4%) |  | ++ (≥24%) | MED (minimal effective dose) (hydrochloride): 1.0 mpk; AP (hydrochloride, 3 mg/kg): +++ (≥49%) |
| CNC1CCc2c(C)csc2C1 (single isomer, unassigned) [Compound 45, N, 3-dimethyl-4,5,6,7-tetrahydrobenzothiophen-6-amine hydrochloride] |  |  | ND (^ <4%) | ND (^ <4%) |  | ND (^ <4%) | ND (^ <4%) | ND (^ <4%) | ND (^ <4%) | ND (^ <4%) | ND (^ <4%) | ND (^ <4%) |  | ++++ (≥74%) | MED (minimal effective dose) (hydrochloride): 0.1 mpk; AP (hydrochloride, 3 mg/kg): + (≥4%) |
| CNC1COc2ccsc2C1 (single isomer, unassigned) [Compound 46, N-methyl-6,7-dihydro-5H-thieno[3,2-b]pyran-6-amine hydrochloride] |  |  | ND (^ <4%) | ND (^ <4%) | ND (^ <4%) |  | ND (^ <4%) | ND (^ <4%) | ND (^ <4%) | ND (^ <4%) | ND (^ <4%) |  |  | ND (^ <4%) | MED (minimal effective dose) (hydrochloride): 10 mpk; AX (hydrochloride, 3 mg/kg): + (≥4%); UK (hydrochloride, 3 mg/kg): ++ (≥24%) |
| CNC1COc2ccsc2C1 (single isomer, unassigned) [Compound 47, N-methyl-6,7-dihydro-5H-thieno[3,2-b]pyran-6-amine hydrochloride] |  |  | ND (^ <4%) | ND (^ <4%) | ND (^ <4%) |  | ND (^ <4%) | ND (^ <4%) | ND (^ <4%) | ND (^ <4%) | ND (^ <4%) |  |  | ++++ (≥74%) | MED (minimal effective dose) (hydrochloride): 0.3 mpk; AX (hydrochloride, 3 mg/kg): ND (^ <4%); UK (hydrochloride, 3 mg/kg): ND (^ <4%) |
